Laboratory results published in PubChem BioAssay (NCI).
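Method: 48-hour compound exposure of cells in 96-well plates, five concentrations, linear interpolation of endpoints. At the GI50, growth is halved. The concentration for full growth arrest is given as TGI.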

Tests used:
Assay in all cases: growth of human tumour cells (NCI), 48 h
[1] = tested on: HCT-116 colon
[2] = tested on: K-562 leukemia
[3] = tested on: M14 melanoma
[4] = tested on: RPMI-8226 leukemia
[5] = tested on: CAKI-1 renal
[6] = tested on: NCI-H522 lung
[7] = tested on: SK-MEL-2 melanoma
[8] = tested on: OVCAR-3 ovarian
[9] = tested on: CCRF-CEM leukemia
[10] = tested on: SK-MEL-5 melanoma
[11] = tested on: HT29 colon
[12] = tested on: MOLT-4 leukemia
[13] = tested on: ACHN renal
[14] = tested on: SK-OV-3 ovarian
[15] = tested on: SR leukemia
[16] = tested on: SNB-75 CNS
[17] = tested on: A498 renal
[18] = tested on: NCI/ADR-RES ovarian
[19] = tested on: UACC-257 melanoma
[20] = tested on: NCI-H226 lung
[21] = tested on: SW-620 colon
[22] = tested on: SF-295 CNS
[23] = tested on: IGROV1 ovarian
[24] = tested on: 786-0 renal
[25] = tested on: A549 NSCLC
[26] = tested on: LOX IMVI melanoma

## Cc1nc2cc(Nc3nc(Nc4ccc(F)cc4)nc(N4CCOCC4)n3)ccc2n1Cc1ccccc1
[1]
  TGI: 4 µM
[2]
  GI50: 2.94 µM
  TGI: 11.7 µM
[3]
  GI50: 3.16 µM
  TGI: 8.59 µM
[4]
  GI50: 2.19 µM
  TGI: 5.86 µM
[5]
  GI50: 3.89 µM
  TGI: 18.5 µM
[6]
  GI50: 4.1 µM
  TGI: 18.9 µM
[7]
  GI50: 2.49 µM
  TGI: 4.94 µM
[8]
  GI50: 2.75 µM
  TGI: 7.14 µM
[9]
  GI50: 2.75 µM
  TGI: 8.2 µM
[10]
  GI50: 2.9 µM
  TGI: 11.1 µM
[11]
  GI50: 1.93 µM
  TGI: 4.07 µM
[12]
  GI50: 2.7 µM
  TGI: 8.04 µM
[13]
  GI50: 3.05 µM
  TGI: 13.1 µM
[14]
  GI50: 10.5 µM
  TGI: 25.1 µM
[15]
  GI50: 2.4 µM
  TGI: 7.38 µM
[16]
  GI50: 2.73 µM
  TGI: 20.4 µM
[17]
  GI50: 1.3 µM
  TGI: 4.57 µM
[18]
  GI50: 5.22 µM
  TGI: 45.4 µM
[19]
  GI50: 2.11 µM
  TGI: 4.42 µM
[20]
  GI50: 5.79 µM
  TGI: 24.2 µM
[21]
  GI50: 3.97 µM
  TGI: 30.8 µM
[22]
  GI50: 3.01 µM
  TGI: 9.03 µM
[23]
  GI50: 2.3 µM
  TGI: 5.87 µM
[24]
  GI50: 1.69 µM
  TGI: 3.33 µM
[25]
  GI50: 3.2 µM
  TGI: 14.2 µM
[26]
  GI50: 4.3 µM
  TGI: 20.7 µM
